Reference: patent US5185257A, “Thermostable xanthine oxidase from Arthrobacter luteus” (Toyo Boseki Kabushiki Kaisha, priority 1990, dated 1993)
Read-outs that look alike come from different tables or passages of the source.

How the values were obtained:
[1] = test system: Arthrobacter luteus ATCC 21606 thermostable xanthine oxidase (enzyme of the invention); test: km value of the thermostable xanthine oxidase of the invention; format: biochemical
Procedure: (§1) 50 mM tris-hydrochloric acid buffer (2.9 ml) and 0.1 ml of a 10 mM aqueous solution of xanthine are mixed, and this mixture is pre-heated at 37° C. After 0.01 ml of enzyme solution is added and gently mixed, the increase of absorbance at 293 nm per minute is determined using a spectrophotometer thermostated at 37° C. with distilled water as the control. The xanthine oxidase activity is expressed on the assumption that the amount of enzyme which produces 1 μmol of uric acid per minute under the conditions described above is taken as 1 unit (U).
as §1, with “After” for “50 mM tris-hydrochloric acid buffer (2.9 ml) and 0.1 ml of a 10 mM aqueous solution of xanthine are mixed, and this mixture is pre-heated at 37° C. After”, “550” for “293”, “quinone imine pigment” for “uric acid”

[2] = test system: xanthine oxidase derived from Enterobacter cloacae; test: km value of the comparative xanthine oxidase from Enterobacter cloacae; format: biochemical; details: Table 1, Comparative Example
Description: Determinations were made for conventional xanthine oxidase derived from milk and xanthine oxidase derived from Enterobacter cloacae.

SMILES	Km ([1]; read-out: km value for hypoxanthine, pH 7.5) [µM]	Km ([1]; read-out: km value hypoxanthine, Table 1, enzyme of Example 1) [µM]	Km ([2]; read-out: km value hypoxanthine) [µM]	Km ([1]; Table 1, enzyme of Example 1, read-out: km value xanthine) [µM]	Km ([1]; pH 7.5, read-out: km value for xanthine) [µM]	Km ([2]; read-out: km value xanthine) [µM]
O=c1[nH]cnc2nc[nH]c12 [hypoxanthine]	~52	52	83			
O=c1[nH]c(=O)c2[nH]cnc2[nH]1 [xanthine]				54	~54	73
